# From PMC6071991, “Hydroxylated Polybrominated Biphenyl Ethers Exert Estrogenic Effects via Non-Genomic G Protein–Coupled Estrogen Receptor Mediated Pathways” (Environmental Health Perspectives, 2018)
# Like-named read-outs stand apart in the source and are kept apart here.
# What was measured:
# human GPER = tested on: human GPER; set-up: method as in Thomas and Dong 2006; details: ref Thomas and Dong 2006; cited from earlier work
# GPER [1] = biological target: T1, GPER (Homo sapiens, UniProt Q99527); experiment: cell-based
# T1 sequence (Q99527 whole entry): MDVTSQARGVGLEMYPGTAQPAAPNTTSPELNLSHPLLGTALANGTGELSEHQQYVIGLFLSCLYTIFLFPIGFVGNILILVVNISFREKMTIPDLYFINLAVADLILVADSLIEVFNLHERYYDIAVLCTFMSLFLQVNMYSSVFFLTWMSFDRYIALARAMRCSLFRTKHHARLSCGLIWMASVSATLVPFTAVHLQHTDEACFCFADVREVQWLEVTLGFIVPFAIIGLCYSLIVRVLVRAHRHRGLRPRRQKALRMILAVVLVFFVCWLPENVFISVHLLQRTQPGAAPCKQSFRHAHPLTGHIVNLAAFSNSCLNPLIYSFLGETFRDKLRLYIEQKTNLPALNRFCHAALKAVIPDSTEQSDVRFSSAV
# GPER [2] = biological target: T1, GPER; experiment: SKBR3 cell-based fluorescence competitive binding assay (E2-F probe, flow cytometry)
# [3] = tested on: GPER-mediated signaling in SKBR3 cells; experiment: cAMP assay in SKBR3 cells; type: cell-based, human; details: for LOEC, cAMP production / significant dose-dependent increase in cAMP production compared to control: SKBR3 cells; for LOEC, cAMP production: 30 min treatment
# Description: SKBR3 cells ( 2×10^4 cells) were seeded in 96-well microplates which were precoated with a capture antibody for the cAMP-antibody complex (Invitrogen). […].
# SKBR3 cells [4] = experiment: Wound-healing cell migration assay; type: cell-based, human; details: for LOEC, SKBR3 cell migration, wound-healing assay: 48 h; for LOECs, promotion of SKBR3 cell migration via GPER pathways: abstract summary over Boyden chamber and wound-healing assays
# Description: For the wound-healing assays, SKBR3 cells were seeded in 12-well microplates at a density of 2.5×10^5 cells/well, incubated first in phenol red–free RPMI 1640 with 10% FBS for 12 h and then in phenol red–free RPMI 1640 without FBS for another 12 h. The cell layer was wounded with a sterile 200-μL pipet tip and washed 3 times with phenol red–free RPMI 1640. […] The closure of the scratch was photographed using an inverted microscope (ROCTEC) coupled to a camera (Canon). The change in the scratch area was evaluated using Image-Pro Plus 6.0 (Media Cybernetics). The relative cell migration was calculated by comparing the change in the wound area in the treated wells with those in the control wells.
# SKBR3 cells [5] = experiment: Boyden chamber cell migration assay; type: cell-based, human; details: for LOEC, SKBR3 cell migration, Boyden chamber assay: 48 h
# Description: SKBR3 cell migration was evaluated using Boyden chamber and wound-healing assays as described previously with slight modification ([Cao et al. 2017]). For the Boyden chamber assay, 24-well plates containing cell culture inserts with 8-μm pore size (Corning) were used. The cells ( 8×10^4 cells, 100μL ) were seeded in the upper chamber, and the lower chamber was supplied with 600μL phenol red–free RPMI 1640 with 10% FBS (Invitrogen). After 12 h, the cells were incubated with phenol red–free RPMI 1640 without FBS for another 12 h. […] After incubation for 48 h, the cells on the upper side of the insert membrane were removed with cotton swabs, and the cells on the lower surface of the membrane were fixed with methanol for 10 min and stained with 0.1% crystal violet (Sigma-Aldrich). Then, the cells were counted under an inverted microscope (ROCTEC) coupled to a camera (Canon), and six fields were randomly chosen per chamber. The relative cell migration was determined by comparing the average number of cells in the six fields of the treated chamber to those in the control chamber.
# [6] = tested on: GPER-mediated signaling in SKBR3 cells; experiment: Calcium mobilization assay in SKBR3 cells; type: cell-based, human; details: for LOECs, activation of GPER signaling pathways: abstract summary over calcium mobilization and cAMP accumulation in SKBR3 cells; for significant dose-dependent increase in calcium mobilization compared to control: SKBR3 cells
# ERα = tested on: ERα; set-up: method as in Li et al. 2013; details: ref Li et al. 2013; cited from earlier work
# zebrafish GPER = tested on: zebrafish GPER; set-up: method as in Fitzgerald et al. 2015; details: ref Fitzgerald et al. 2015, cited from earlier work; for binding to zebrafish GPER at a single tested concentration: 1μM
# rats = details: exposure of pregnant rats, 1–10mg/kg, cited from earlier work
# SH-SY5Y cells = tested on: SH-SY5Y cells; set-up: method as in Tian et al. 2016; details: activity inhibited by GPER antagonist G15; ref Tian et al. 2016; cited from earlier work
# [7] = ratio between IC50 of E2 and compounds, E2 = 100%
# [8] = E2-treated SKBR3 cells, G15 pretreatment 2 h
compound,measurement,setting,value
"Oc1ccc(-c2cc(Cl)ccc2Cl)c(Cl)c1 [4-hydroxy-2,2ʹ,5ʹ-trichloro-biphenyl]",RBA to human GPER compared to E2,human GPER,0.2–1.3%
O=C1C2(Cl)C3(Cl)C4(Cl)C(Cl)(Cl)C5(Cl)C3(Cl)C1(Cl)C5(Cl)C24Cl (stereo not drawn) [kepone],RBA to human GPER compared to E2,human GPER,1.3–13.4%
"Oc1c(Br)c(Br)c(Br)c(Br)c1Oc1cc(Br)c(Br)cc1Br [6-OH-BDE-180, 6-hydroxy-2,2',3,4,4',5,5'-heptabromodiphenyl ether]",IC50,GPER [1],4.8 µM
same,RBA (relative binding affinity),GPER [2]; [7],5.4%
O=c1c(-c2ccc(O)cc2)coc2cc(O)cc(O)c12 [genistein],RBA to human GPER compared to E2,human GPER,1.3–13.4%
"C[C@]12CC[C@@H]3c4ccc(O)cc4CC[C@H]3[C@@H]1CC[C@@H]2O [E2, 17β-estradiol, reference compound]","LOEC, cAMP production",[3],1 nM
same,"LOEC, SKBR3 cell migration, wound-healing assay",SKBR3 cells [4],1 nM
same,"LOEC, SKBR3 cell migration, Boyden chamber assay",SKBR3 cells [5],1 nM
"Oc1cc(Oc2cc(Br)c(Br)cc2Br)c(Br)cc1Br [5ʹ-OH-BDE-099, 5'-hydroxy-2,2',4,4',5-pentabromodiphenyl ether]","LOECs, activation of GPER signaling pathways",[6],10 to 100 nM
same,"LOEC, SKBR3 cell migration, wound-healing assay",SKBR3 cells [4],100 nM
same,"LOECs, promotion of SKBR3 cell migration via GPER pathways",SKBR3 cells [4],0.1 to 1 µM
same,"LOEC, SKBR3 cell migration, Boyden chamber assay",SKBR3 cells [5],100 nM
same,type of activity on ERα,ERα,antagonists
same,IC50,GPER [1],1.3 µM
"Oc1cccc(Oc2ccc(Br)cc2Br)c1 [3ʹ-OH-BDE-007, 3'-hydroxy-2,4-dibromodiphenyl ether]",IC50,GPER [1],2.6 µM
same,RBA (relative binding affinity),GPER [2]; [7],10.0%
"Oc1c(Br)cc(Br)c(Oc2ccc(Br)cc2Br)c1Br [3-OH-BDE-100, 3-hydroxy-2,2',4,4',6-pentabromodiphenyl ether]",significant dose-dependent increase in calcium mobilization compared to control,[6],exceptions
same,significant dose-dependent increase in cAMP production compared to control,[3],exceptions
same,type of activity on ERα,ERα,antagonists
same,IC50,GPER [1],3.6 µM
same,RBA (relative binding affinity),GPER [2],7.2%
nonylphenol,RBA to human GPER compared to E2,human GPER,1.3–13.4%
"CC(C)(c1ccc(O)cc1)c1ccc(O)cc1 [BPA, bisphenol A]",RBA to human GPER compared to E2,human GPER,2.8%
same,RBA to zebrafish GPER,zebrafish GPER,15.8%
"Oc1cc(Br)c(Oc2ccc(Br)cc2Br)cc1Br [4ʹ-OH-BDE-049, 4'-hydroxy-2,2',4,5'-tetrabromodiphenyl ether]","LOECs, activation of GPER signaling pathways",[6],10 to 100 nM
same,"LOEC, SKBR3 cell migration, wound-healing assay",SKBR3 cells [4],1000 nM
same,"LOECs, promotion of SKBR3 cell migration via GPER pathways",SKBR3 cells [4],0.1 to 1 µM
same,"LOEC, SKBR3 cell migration, Boyden chamber assay",SKBR3 cells [5]; text: same LOECs as for the wound-healing assay,1000 nM
same,IC50,GPER [1],2.8 µM
same,RBA (relative binding affinity),GPER [2]; [7],9.3%
"Oc1c(Br)c(Br)c(Oc2c(Br)cc(Br)c(Br)c2Br)c(Br)c1Br [4ʹ-OH-BDE-201, 4'-hydroxy-2,2',3,3',4,5',6,6'-octabromodiphenyl ether]",IC50,GPER [1],5.3 µM
same,RBA (relative binding affinity),GPER [2]; [7],4.9%
"Brc1ccc(Oc2cc(Br)c(Br)cc2Br)c(Br)c1 [BDE-099, 2,2',4,4',5-pentabromodiphenyl ether]",estrogen target genes in the uterus of female offspring,rats; ref Ceccatelli et al. 2006,changes in the regulation of estrogen target genes
same,sex steroid levels in male and female offspring,rats; ref Lilienthal et al. 2006,decreases in sex steroid levels
"Oc1c(Br)cc(Br)c(Oc2cc(Br)c(Br)cc2Br)c1Br [3ʹ-OH-BDE-154, 3'-hydroxy-2,2',4,4',5,6'-hexabromodiphenyl ether]","LOECs, activation of GPER signaling pathways",[6],10 to 100 nM
same,"LOEC, SKBR3 cell migration, wound-healing assay",SKBR3 cells [4],100 nM
same,"LOECs, promotion of SKBR3 cell migration via GPER pathways",SKBR3 cells [4],0.1 to 1 µM
same,"LOEC, SKBR3 cell migration, Boyden chamber assay",SKBR3 cells [5],100 nM
same,type of activity on ERα,ERα,antagonists
same,IC50,GPER [1],1.3 µM
"Clc1ccc(C(c2ccccc2Cl)C(Cl)Cl)cc1 (stereo not drawn) [2-(2-chlorophenyl)-2-(4-chlorophenyl)-1,1-dichloroethane]",RBA to human GPER compared to E2,human GPER,0.2–1.3%
"Oc1cc(Br)c(Br)c(Br)c1Oc1ccc(Br)cc1Br [6-OH-BDE-085, 6-hydroxy-2,2',3,4,4'-pentabromodiphenyl ether]",type of activity on ERα,ERα,antagonists
"Oc1c(Br)ccc(Oc2ccc(Br)cc2Br)c1Br [3-OH-BDE-047, 3-hydroxy-2,2',4,4'-tetrabromodiphenyl ether]",significant dose-dependent increase in calcium mobilization compared to control,[6],exceptions
same,significant dose-dependent increase in cAMP production compared to control,[3],exceptions
same,IC50,GPER [2],12 µM
same,RBA (relative binding affinity),GPER [2],2.2%
CC(C)(c1cc(Cl)c(O)c(Cl)c1)c1cc(Cl)c(O)c(Cl)c1 [tetrachlorobisphenol A],binding to zebrafish GPER at a single tested concentration,zebrafish GPER,effective binding
"Clc1ccc(C(c2ccc(Cl)cc2)C(Cl)(Cl)Cl)cc1 [2,2-bis(p-chlorophenyl)-1,1,1-trichloroethane]",RBA to human GPER compared to E2,human GPER,0.2–1.3%
"CC(=O)c1ccc2c(c1)C1C=CCC1C(c1cc3c(cc1Br)OCO3)N2 (stereo not drawn) [G1, reference compound]","LOEC, cAMP production",[3],1 nM
same,"LOEC, SKBR3 cell migration, wound-healing assay",SKBR3 cells [4],1 nM
same,"LOEC, SKBR3 cell migration, Boyden chamber assay",SKBR3 cells [5],1 nM
"Oc1c(Br)c(Br)c(Oc2cc(Br)c(Br)cc2Br)c(Br)c1Br [4-OH-BDE-187, 4-hydroxy-2,2',3,4',5,5',6-heptabromodiphenyl ether]",IC50,GPER [1],6.2 µM
same,RBA (relative binding affinity),GPER [2]; [7],4.2%
"Oc1cc(Oc2ccc(Br)cc2Br)ccc1Br [3ʹ-OH-BDE-028, 3'-hydroxy-2,4,4'-tribromodiphenyl ether]",IC50,GPER [1],3 µM
same,RBA (relative binding affinity),GPER [2]; [7],8.7%
"Oc1ccccc1Oc1ccc(Br)cc1 [2ʹ-OH-BDE-003, 2'-hydroxy-4-monobromodiphenyl ether]",IC50,GPER [1],20 µM
same,RBA (relative binding affinity),GPER [2]; [7],1.3%
"Brc1ccc(Oc2ccc(Br)cc2Br)c(Br)c1 [BDE-047, 2,2',4,4'-tetrabromodiphenyl ether]",effect on migration of SH-SY5Y cells,SH-SY5Y cells,stimulated the migration
"Brc1cc2c(cc1[C@@H]1Nc3ccccc3[C@@H]3C=CC[C@@H]31)OCO2 [G15, reference compound]",calcium mobilization after G15 pretreatment versus vehicle pretreatment,[6]; [8],significantly lower
same,cAMP production after G15 pretreatment versus vehicle pretreatment,[3]; [8],significantly lower
same,"cell migration after G15 pretreatment versus OH-PBDE alone, wound-healing","SKBR3 cells [4]; 1μM OH-PBDEs, 10μM G15",significantly less cell migration
same,"cell migration after G15 pretreatment versus OH-PBDE alone, Boyden chamber","SKBR3 cells [5]; 1μM OH-PBDEs, 10μM G15",significantly less cell migration
CC(C)(c1cc(Br)c(O)c(Br)c1)c1cc(Br)c(O)c(Br)c1 [tetrabromobisphenol A],binding to zebrafish GPER at a single tested concentration,zebrafish GPER,effective binding
